Measured values taken from US20120040976A1, “SMALL MOLECULE IMMUNOMODULATORS FOR ALZHEIMER'S DISEASE” (HUMAN BIOMOLECULAR RESEARCH INSTITUTE, priority 2008, published 2012).
≈ marks a conversion by molar mass, not a printed value.

How the values were obtained:
VDR = VDR gene expression by qPCR in U-937 human monocytic cells treated with curcumins plus Aβ; type: cell-based; conditions: for Relative gene expression VDR, increased expression relative to control cells: human monocytic cells (U-937), curcumin plus Aβ
Description: (§1) Cell culture conditions for monocytic cell lines. Human and mouse monocyte cell lines are grown in RPMI-1640 medium with 10% fetal bovine serum (FBS), plus glutamine and pen/strep. For treatment with compounds (curcuminoids+/−Aβ), replicate sets of 0.5-1.0 mL cultures containing 1-2×10^6 cells are set up in the wells of 48-well tissue culture plates. Both replicate sets have at least one control well receiving no added curcuminoid to provide baseline expression controls for untreated, and Aβ-only treated cells. Remaining wells receive curcuminoid in a range of 10-fold serial dilutions in DMSO, typically from […] Cultures are incubated for 20-24 hours (“overnight”) at 37° C. in atmosphere with 5% CO2. After one overnight, to one of replicate sets of cultures is added Aβ (1-42) peptide to a final concentration of 5 μg/mL.
(§2) RNA isolation and cDNA synthesis. After the first overnight incubation in the presence of curcuminoid, cells from one replicate set of wells are collected by centifugation. RNAs are extracted from pelleted cells using miniprep column kits following manufacturer's protocol for animal cells. […] of total cellular RNA from each well is quantitated using a Nanodrop spectrophotometer, and first-strand total cDNA is prepared from 0.3-1.0 μg RNA by random-hexamer priming. Following the second 20 hr. incubation in the presence of Aβ, RNA extractions and cDNA synthesis are similarly performed.
(§3) Assay development. Gene-specific mRNA levels are determined using a real-time thermocycler, and by normalizing to expression of one or more control genes. Assays for quantifying mRNA levels are based on gene sequences reported in NCBI Genbank. PCR oligonucleotide primers are selected spanning introns to minimize the opportunity for amplication from any contaminating genomic DNA in the RNA preps. Oligonucleotides are typically tested and used at a concentration of 200 nM in qPCR reactions containing SYBR dye. Control reactions include template from cDNA synthesis reactions either + or − reverse transcriptase (RT), as well as no-template controls (ntc). All reactions are performed in triplicate. Reactions are typically run with 40 cycles of 95° C. (10 sec) and 58° C. (30 sec). Melt curves based on incremental 0.5° C. increases are determined for new assays to test for uniformity of amplified products. Reaction conditions are modified as needed depending on initial test results. ‘Working’ assays are selected based on clear RNA-dependent amplification and absence of product in ‘ntc’ reactions. The following assay primers are used: […]
(§4) qPCR reactions of cultured monocyte cDNAs. One μL total cellular cDNA per reaction is used in triplicate reactions for each test gene, and for each culture treatment. SYBR-Green reactions were run on a Continuous Fluorescence real-time thermocycler and analyzed. Cycle threshold (Ct) values are recorded for each replicate reaction, and are then averaged and normalized against mean Ct values from one or more control genes. Fold-expression differences relative to untreated cells are determined using the 2^−ΔΔCt method as previously described. Data from the curcumin concentration range are plotted in order to determine EC50 values (concentrations producing one-half maximal stimulant activity), which are used for comparisons of potency between different compounds. Data are also evaluated for each gene with regard to sensitivity, maximally effective concentration of curcuminoid, response to Aβ, and overall magnitude of fold-expression changes.
(§5) Data showing in vitro up-regulation of genes associated with Aβ phagocytosis in response to curcumins. Natural curcumins and synthetic analogs were tested in U-937 human monocyte cells in vitro for their ability to modulate expression of the genes MGAT3 and TLRs −2, −3, and −4. […]

[1] = Chemical stability (H2O, pH 7.4); type: physicochemical
Average solubility = type: physicochemical
TLR 4 = TLR 4 transcription ratio, AD patient / control PBMCs (qPCR); type: cell-based, human; conditions: Aβ stimulation
Description: as §4
(§6) MGAT3 and/or TLR transcription were tested by qPCR in human monocyte cells treated with curcuminoids and compared the results to those treated with vehicle (Table 7). As discussed above, activation or up-regulation of macrophage MGAT3 or TLR's results in many functional outcomes, including the enhancement of […] and removal of Aβ, increased apoptosis, secretion of inflammatory cytokines, and other anti-AD antimicrobial activities. […] Thus, the ratio of MGAT3 or TLR transcription upon Aβ stimulation of human monocytes versus vehicle treatment provides an indicator and sensitive method to test the in vitro efficacy of drug candidates. […] The relative biological activity of the curcumin analogs in AD patient and control cells was ascertained in the in vitro Aβ assay described above (see Example 2).

TLR3 = TLR3 gene expression by qPCR in U-937 human monocytic cells treated with curcumins plus Aβ; type: cell-based; conditions: for Relative gene expression TLR3, increased expression relative to control cells: human monocytic cells (U-937), curcumin plus Aβ
Description: as §1, §2, §3, §4, §5

MGAT3 [2] = assay: MGAT3 gene expression by qPCR in U-937 human monocytic cells treated with curcumins plus Aβ; type: cell-based; conditions: human monocytic cells (U-937), curcumin plus Aβ
Description: as §1, §2
as §3, with “All reactions are performed in triplicate. Reactions are typically run with 40 cycles of 95° C. (10 sec) and 58° C. (30 sec).” left out, “products.” for “products. Reaction conditions are modified as needed depending on initial test results. ‘Working’ assays are selected based on clear RNA-dependent amplification and absence of product in ‘ntc’ reactions. The following assay primers are used:”
qPCR reactions of cultured monocyte cDNAs. […] SYBR-Green reactions were run on a Continuous Fluorescence real-time thermocycler and analyzed. Cycle threshold (Ct) values are recorded for each replicate reaction, and are then averaged and normalized against mean Ct values from one or more control genes. Fold-expression differences relative to untreated cells are determined using the 2^−ΔΔCt method as previously described. […] Data are also evaluated for each gene with regard to sensitivity, maximally effective concentration of curcuminoid, response to Aβ, and overall magnitude of fold-expression changes. […]

TLR 2 = TLR 2 transcription ratio, AD patient / control PBMCs (qPCR); type: cell-based, human; conditions: Aβ stimulation
Description: as §4, §6

MGAT3 [3] = assay: MGAT3 transcription ratio, AD patient / control PBMCs (qPCR); type: cell-based, human; conditions: Aβ stimulation
Description: as §4, §6

TLR 3 = TLR 3 transcription ratio, AD patient / control PBMCs (qPCR); type: cell-based, human; conditions: Aβ stimulation
Description: as §4, §6

[4] = Metabolic stability in human liver microsomes; type: in vitro ADME; conditions: human, read-out: Half life, t1/2 HLM
TLR2 = TLR2 gene expression by qPCR in U-937 human monocytic cells treated with curcumins plus Aβ; type: cell-based; conditions: human monocytic cells (U-937), curcumin plus Aβ
Description: as §1, §2, §3
(§7) qPCR reactions of cultured monocyte cDNAs. One μL total cellular cDNA per reaction is used in triplicate reactions for each test gene, and for each culture treatment. SYBR-Green reactions were run on a Continuous Fluorescence real-time thermocycler and analyzed. Cycle threshold (Ct) values are recorded for each replicate reaction, and are then averaged and normalized against mean Ct values from one or more control genes. Fold-expression differences relative to untreated cells are determined using the 2^−ΔΔCt method as previously described. […] Data are also evaluated for each gene with regard to sensitivity, maximally effective concentration of curcuminoid, response to Aβ, and overall magnitude of fold-expression changes. […]

TLR4 = TLR4 gene expression by qPCR in U-937 human monocytic cells treated with curcumins plus Aβ; type: cell-based; conditions: human monocytic cells (U-937), curcumin plus Aβ
Description: as §1, §2, §3, §7

[5] = Metabolic stability in human S9 fraction; type: in vitro ADME; conditions: read-out: Half life, t1/2 S9
Average permeability = type: in vitro ADME; conditions: not told
[6] = tested on: cortical neurons in hAPP-transfected rat brain slices; assay: Rat brain slice AD model (hAPP-induced neurodegeneration); type: cell-based; conditions: rat brain slices transfected with EYFP and hAPP, three concentrations, 72 hrs (FIG. 8)
Excerpt: A rodent brain slice model for AD has been developed where the expression of human APP by particle-mediated gene transfer (“biolistics”) leads to typical signs of neuronal dystrophy, and ultimately the degeneration and clearance of the cell body with a few days. Brain slice preparations offer a powerful experimental system because they preserve the three-dimensional tissue architecture and local environment of neurons and glia far better than dissociated cell culture. As such, drug lead candidates that show neuroprotective activity in brain-tissue based disease models have a much increased ability to predict efficacy in vivo and ultimately in the clinic.
Preparation of Brain Slice Explants. Cd Sprague-Dawley Rat Pups are Used at Postnatal day 10. Brains are cut into 250 μm coronal slices on a vibratome in chilled medium baths. Approximately 6 such slices can be cut from each rat brain; each are divided into “hemi-coronal” slices which are placed in individual 6-well transwell inserts. […]
Assessment of cortical neuron health. […] Representative images are captured using a digital camera on a fluorescence microscope. After 3 days, cortical neurons are scored. […] Statistical significance of the neuronal counts in compound-treated slices is evaluated by ANOVA analysis, followed by post hoc Dunnett's analysis at the p≦0.05 confidence level. […]

[7] = water, H2O, read-out: Chemical stability t1/2 H2O (converted)

Row | SMILES | Relative gene expression VDR, increased expression relative to control cells (VDR) | Solubility compared with parent compounds (in words) (Average solubility) | solubility (Average solubility) | Relative ratio of TLR 4 transcription in AD patient / control PBMC's (TLR 4) | Relative gene expression TLR3, increased expression relative to control cells (TLR3) | Relative gene expression MGAT3, increased expression relative to control cells (MGAT3 [2]) | Relative ratio of TLR 2 transcription in AD patient / control PBMC's (TLR 2) | Relative ratio of MGAT3 transcription in AD patient / control PBMC's (MGAT3 [3]) | Relative ratio of TLR 3 transcription in AD patient / control PBMC's (TLR 3) | half-life [4] | Relative gene expression TLR2, increased expression relative to control cells (TLR2) | Relative gene expression TLR4, increased expression relative to control cells (TLR4) | half-life [5] | IC50 (Anti-oxidant activity) | Papp (Average permeability) | half-life [1, 7] | Chemical stability pH 7.4 (stable/unstable) ([1]; pH 7.4) | also measured
1 | CC(C)C(N)C(=O)Oc1ccc(/C=C/C(=O)/C=C(O)/C=C/c2ccc(OC(=O)C(N)C(C)C)cc2)cc1 (centres unmarked) [Compound 33, 4,4′-(3,5-Dioxohepta-1,6-diene-1,7-diyl)bis(4,1-phenylene) bis(2-amino-3-methylbutanoate)] | ++ ((++) >20-fold) | significantly improved solubility | 0.0182 mg/mL (≈ 35.9 µM) | TLR 4 + ((+) indicates a ratio of 1.0-1.5) | + ((+) <20-fold) | +++ ((+++) >40-fold) | TLR 2 ++ ((++) indicates a ratio of 1.5-2.0) | + ((+) indicates a ratio of 1.0-1.5) | TLR 3 ++ ((++) indicates a ratio of 1.5-2.0) | 23.8 min | + ((+) <20-fold) | + ((+) <20-fold) | 5.9 min | > 250 µM | 3160 nm/s | – | – | VDR normalized expression response (in words) (VDR; human monocytes, plus Aβ): somewhat higher expression; half-life ([1]; water (aqueous solution), pH 7.4, value given in h, read-out: Chemical stability t1/2 pH 7.4 (converted)): 60 min; half-life ([1]; water, H2O, value given in h, read-out: Chemical stability t1/2 H2O (converted)): 1130 min; TLR3 expression response (in words) (TLR3; U-937, plus Aβ (FIG. 3)): limited response
2 | COc1cc(/C=C/C(=O)/C=C(O)/C=C/c2ccc(O)c(OC)c2)ccc1O [Compound 2, 1,7-Bis(4-hydroxy-3-methoxyphenyl)-5-hydroxy-hepta-1,4,6-trien-3-one, reference compound] | – | – | 0.0095 mg/mL (≈ 25.8 µM) | – | – | – | – | + ((+) indicates a ratio of 1.0-1.5) | – | 40.8 min | – | – | 10.1 min | 31.7 µM | 8440 ± 240 nm/s | 73.5 min | – | Neuroprotective effect against hAPP-induced neurodegeneration [6]: prevent widespread neurodegeneration in a dose-dependent manner; half-life ([1]; water (aqueous solution), pH 7.4, read-out: Chemical stability t1/2 pH 7.4 (converted)): 15.9 min
3 | COc1cc(/C=C/C(=O)/C=C(O)/C=C/c2ccc(OC(=O)C(N)CCCCN)c(OC)c2)ccc1OC(=O)C(N)CCCCN (centres unmarked) [Compound 36, 4,4′-(3,5-dioxohepta-1,6-diene-1,7-diyl)bis(2-methoxy-4,1-phenylene)bis(2,6-diaminohexanoate)] | + ((+) <20-fold) | significantly improved solubility | 0.0306 mg/mL (≈ 49 µM) | – | + ((+) <20-fold) | + ((+) <20-fold) | – | – | – | 19.9 min | + ((+) <20-fold) | + ((+) <20-fold) | 4.5 min | – | 7180 nm/s | 10.2 min | unstable (stability half-lives less than 5 minutes) | –
4 | COc1ccc(F)cc1/C=C/C(=O)/C=C(O)/C=C/c1cc(F)ccc1OC [Compound 26, 1,7-bis-(5-Fluoro-2-methoxyphenyl)-5-hydroxy-hepta-1,4,6-trien-3-one] | – | – | 0.00044 mg/mL (≈ 1.18 µM) | TLR 4 + ((+) indicates a ratio of 1.0-1.5) | – | – | TLR 2 + ((+) indicates a ratio of 1.0-1.5) | – | TLR 3 ++ ((++) indicates a ratio of 1.5-2.0) | 59.2 min | – | – | 8.2 min | > 250 µM | 1290 nm/s | – | stable (stability half-lives greater than 5 hours) | Chemical stability H2O (stable/unstable) ([1]; H2O): stable (stability half-lives greater than 5 hours)
